Several values for one entry are separate records, joined by “and”; a condition that tells them apart may be missing. Equal entries are not always repeated.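 The compound was tested at five concentrations on cells cultured in 96-well plates, with a 48-hour exposure period. Here, GI50 denotes the concentration required for 50% inhibition of growth. At the TGI there is no net growth.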
What was measured:
Test in all cases: inhibition of tumour cell growth, NCI panel, 48 h
SNB-19 CNS = tested on: SNB-19 CNS
MCF7 breast = tested on: MCF7 breast
OVCAR-8 ovarian = tested on: OVCAR-8 ovarian
DU-145 prostate = tested on: DU-145 prostate
SF-268 CNS = tested on: SF-268 CNS
RXF 393 renal = tested on: RXF 393 renal
TK-10 renal = tested on: TK-10 renal
COLO 205 colon = tested on: COLO 205 colon
786-0 renal = tested on: 786-0 renal
A549 NSCLC = tested on: A549 NSCLC

## O=C1/C(=C/C(Cl)=C/c2ccccc2)SC(=S)N1CCc1ccc(O)cc1
SNB-19 CNS
  GI50: 1.51 µM
  TGI: 2.95 µM
MCF7 breast
  GI50: 1.85 µM
  TGI: 16.9 µM
OVCAR-8 ovarian
  GI50: 0.596 µM
  TGI: 16.3 µM
DU-145 prostate
  GI50: 1.6 µM
  TGI: 3.28 µM
SF-268 CNS
  GI50: 2.6 µM
  TGI: 10.3 µM
RXF 393 renal
  GI50: 1.58 µM
  TGI: 3.2 µM
TK-10 renal
  GI50: 2.39 µM
  TGI: 5.49 µM
COLO 205 colon
  GI50: 2.27 µM
  TGI: 7.69 µM
786-0 renal
  GI50: 2.19 µM
  TGI: 4.92 µM
A549 NSCLC
  GI50: 2.85 µM
  TGI: > 100 µM

## O=C1/C(=C/c2ccc(Cl)cc2)CN(C(=O)C(Cl)Cl)C/C1=C\c1ccc(Cl)cc1
SNB-19 CNS
  GI50: 0.177 µM
  TGI: 0.576 µM
MCF7 breast
  GI50: 0.0441 µM
  TGI: 0.56 µM
OVCAR-8 ovarian
  GI50: 0.22 µM
  TGI: 1.44 µM
DU-145 prostate
  GI50: 0.357 µM
  TGI: 1.31 µM
SF-268 CNS
  GI50: 0.315 µM
  TGI: 1.48 µM
RXF 393 renal
  GI50: 0.18 µM
  TGI: 0.378 µM
TK-10 renal
  GI50: 0.374 µM
  TGI: 1.52 µM
COLO 205 colon
  GI50: 0.233 µM
  TGI: 0.756 µM
786-0 renal
  GI50: 0.183 µM
  TGI: 0.371 µM
A549 NSCLC
  GI50: 0.275 µM
  TGI: 1.05 µM

## COC(=O)C#Cc1ccc([N+](=O)[O-])cc1
SNB-19 CNS
  TGI: 8.47 µM
MCF7 breast
  TGI: 9.04 µM
OVCAR-8 ovarian
  TGI: 7.25 µM
DU-145 prostate
  TGI: 3.57 µM
SF-268 CNS
  TGI: 14 µM
RXF 393 renal
  TGI: 4.11 µM
TK-10 renal
  TGI: 3.79 µM
COLO 205 colon
  TGI: 3.41 µM
786-0 renal
  TGI: 7.04 µM
A549 NSCLC
  TGI: 7.44 µM

## COc1cnc2c(c1)C(=O)c1c-2n(CCCN2CCN(C)CC2)c(=O)c2cc(Cl)ccc12
SNB-19 CNS
  GI50: 13.8 µM
  TGI: 78.9 µM
MCF7 breast
  GI50: 0.487 µM
  TGI: 21.7 µM
OVCAR-8 ovarian
  GI50: 3.09 µM
  TGI: > 100 µM
DU-145 prostate
  GI50: 3.18 µM
  TGI: 19.8 µM
SF-268 CNS
  GI50: 4.75 µM
  TGI: 29.1 µM
RXF 393 renal
  GI50: 1.9 µM
  TGI: 13.3 µM
COLO 205 colon
  GI50: 1.3 µM
  TGI: > 100 µM
786-0 renal
  GI50: 2.47 µM
  TGI: 31.8 µM
A549 NSCLC
  GI50: 4.17 µM
  TGI: > 100 µM

## Clc1ccc(CO/N=C(\Cn2ccnc2)c2ccc(Cl)cc2Cl)c(Cl)c1
MCF7 breast
  GI50: 1.54 µM
  TGI: 3.02 µM
DU-145 prostate
  GI50: 1.96 µM
  TGI: 3.66 µM
RXF 393 renal
  GI50: 1.61 µM
  TGI: 3.05 µM
TK-10 renal
  GI50: 1.81 µM
  TGI: 3.25 µM
COLO 205 colon
  GI50: 1.86 µM
  TGI: 3.29 µM
786-0 renal
  GI50: 1.66 µM
  TGI: 3.14 µM
A549 NSCLC
  GI50: 1.55 µM
  TGI: 3.32 µM

## Cn1cnc2c(NCc3ccccc3)nc(NCCO)nc21
SNB-19 CNS
  GI50: 98.9 µM
  TGI: 382 µM
MCF7 breast
  GI50: 62.9 µM
  TGI: 90.4 µM and > 268 µM
OVCAR-8 ovarian
  GI50: 90.5 µM
  TGI: 391 µM
DU-145 prostate
  GI50: 125 µM
  TGI: > 500 µM
SF-268 CNS
  GI50: 86.2 µM
  TGI: > 91.2 µM and 223 µM
RXF 393 renal
  GI50: 17.7 µM
  TGI: 40.4 µM and 187 µM
TK-10 renal
  GI50: 135 µM
  TGI: > 456 µM
COLO 205 colon
  GI50: 82.2 µM
  TGI: 69.7 µM and 282 µM
786-0 renal
  GI50: 105 µM
  TGI: > 435 µM
A549 NSCLC
  GI50: 105 µM
  TGI: > 458 µM

## Cc1ccc(NC(=O)c2ccnc(N3CCCC3)c2)cc1-c1ccc(C(=O)NCC2CC2)cc1
SNB-19 CNS
  GI50: > 25 µM
  TGI: > 25 µM
MCF7 breast
  GI50: > 25 µM
  TGI: > 25 µM
OVCAR-8 ovarian
  GI50: > 25 µM
  TGI: > 25 µM
DU-145 prostate
  GI50: > 25 µM
  TGI: > 25 µM
SF-268 CNS
  GI50: > 25 µM
  TGI: > 25 µM
RXF 393 renal
  TGI: > 25 µM
TK-10 renal
  GI50: > 25 µM
  TGI: > 25 µM
COLO 205 colon
  GI50: > 25 µM
  TGI: > 25 µM
786-0 renal
  GI50: > 25 µM
  TGI: > 25 µM
A549 NSCLC
  GI50: > 25 µM
  TGI: > 25 µM

## Cc1ccc(C(=O)NC2CCCCC2)cc1-c1ccc(C(=O)NCC2CC2)cc1
SNB-19 CNS
  GI50: > 25 µM
  TGI: > 25 µM
MCF7 breast
  GI50: > 23.9 µM
  TGI: > 25 µM
OVCAR-8 ovarian
  GI50: > 25 µM
  TGI: > 25 µM
DU-145 prostate
  GI50: > 25 µM
  TGI: > 25 µM
SF-268 CNS
  GI50: > 25 µM
  TGI: > 25 µM
RXF 393 renal
  GI50: > 25 µM
  TGI: > 25 µM
TK-10 renal
  GI50: > 25 µM
  TGI: > 25 µM
COLO 205 colon
  GI50: > 25 µM
  TGI: > 25 µM
786-0 renal
  GI50: > 25 µM
  TGI: > 25 µM
A549 NSCLC
  GI50: 12.4 µM
  TGI: > 25 µM

## CO[C@H]1CC[C@@]2(C)C(=CC[C@H]3[C@@H]4C[C@H](O)C[C@@]4(C)CC[C@@H]32)C1
SNB-19 CNS
  GI50: 4.86 µM
  TGI: 22.2 µM
MCF7 breast
  GI50: 5.32 µM
  TGI: 25.3 µM
OVCAR-8 ovarian
  GI50: 5.14 µM
  TGI: 19.2 µM
DU-145 prostate
  GI50: 4.37 µM
  TGI: 15.2 µM
SF-268 CNS
  GI50: 6.42 µM
  TGI: 21.4 µM
RXF 393 renal
  GI50: 2.49 µM
  TGI: 6.57 µM
TK-10 renal
  GI50: 4.74 µM
  TGI: 17.9 µM
COLO 205 colon
  GI50: 5.02 µM
  TGI: 16.2 µM
786-0 renal
  GI50: 11.7 µM
  TGI: 37.7 µM
A549 NSCLC
  GI50: 4.42 µM
  TGI: 19.6 µM

## COC(=O)N/N=C(\C)C(CN1CCOCC1)C(c1ccccc1)c1cc2ccccc2oc1=O (stereo unspecified)
SNB-19 CNS
  TGI: > 100 µM
MCF7 breast
  TGI: > 100 µM
OVCAR-8 ovarian
  TGI: > 100 µM
DU-145 prostate
  TGI: > 100 µM
SF-268 CNS
  TGI: > 100 µM
RXF 393 renal
  TGI: > 100 µM
TK-10 renal
  TGI: > 100 µM
COLO 205 colon
  TGI: > 100 µM
786-0 renal
  TGI: > 100 µM
A549 NSCLC
  TGI: > 100 µM

## COC(=O)Nc1nc2ccc(Oc3ccc(NC(=O)Nc4cccc(Cl)c4)cc3)cc2[nH]1
SNB-19 CNS
  GI50: 2.61 µM
  TGI: > 25 µM
MCF7 breast
  GI50: 0.307 µM
  TGI: 4.75 µM
OVCAR-8 ovarian
  GI50: 2.84 µM
  TGI: > 17.8 µM
DU-145 prostate
  GI50: 1.58 µM
  TGI: 8.44 µM
SF-268 CNS
  GI50: 2.43 µM
  TGI: 15.3 µM
RXF 393 renal
  GI50: 0.445 µM
  TGI: 2.34 µM
TK-10 renal
  GI50: 4 µM
  TGI: 11.6 µM
COLO 205 colon
  GI50: 0.916 µM
  TGI: 3.07 µM
786-0 renal
  GI50: 1.87 µM
  TGI: 8.28 µM
A549 NSCLC
  GI50: 2.02 µM
  TGI: 8.87 µM

## COc1ccc(-c2nc(-c3nc4cc(C)c(C)cc4[nH]3)cc3c2[nH]c2ccccc23)cc1
SNB-19 CNS
  GI50: 68.9 µM
  TGI: > 100 µM
MCF7 breast
  GI50: 3.22 µM
  TGI: 59.7 µM
OVCAR-8 ovarian
  GI50: 3.46 µM
  TGI: > 100 µM
DU-145 prostate
  GI50: 8.53 µM
  TGI: > 100 µM
SF-268 CNS
  GI50: 12.7 µM
  TGI: > 100 µM
RXF 393 renal
  GI50: 1.72 µM
  TGI: 3.66 µM
TK-10 renal
  GI50: 7.85 µM
  TGI: > 100 µM
COLO 205 colon
  GI50: 1.79 µM
  TGI: 3.8 µM
786-0 renal
  GI50: 2.6 µM
  TGI: 5.93 µM
A549 NSCLC
  GI50: 3.94 µM
  TGI: > 100 µM

## COc1cc2c(cc1OC)[C@@]1(C)C(=O)c3cc4c(cc3[C@H]1N(C)C2=O)OCO4
SNB-19 CNS
  GI50: > 100 µM
  TGI: > 100 µM
MCF7 breast
  GI50: 65.3 µM
  TGI: > 100 µM
OVCAR-8 ovarian
  GI50: 29.3 µM
  TGI: > 100 µM
DU-145 prostate
  GI50: 58.1 µM
  TGI: > 100 µM
SF-268 CNS
  GI50: 64.6 µM
  TGI: > 100 µM
RXF 393 renal
  GI50: 26.9 µM
  TGI: > 100 µM
TK-10 renal
  GI50: 67.3 µM
  TGI: > 100 µM
COLO 205 colon
  GI50: > 100 µM
  TGI: > 100 µM
786-0 renal
  GI50: 54.3 µM
  TGI: > 100 µM
A549 NSCLC
  GI50: 62.9 µM
  TGI: > 100 µM

Source: PubChem BioAssay (NCI)
